Measurements as given in patent US20080299587A1, “METHODS OF MEASURING INHIBITION OF PLATELET AGGREGATION BY THROMBIN RECEPTOR ANTAGONISTS” (priority 2007, published 2008).
Like-named read-outs stand apart in the source and are kept apart here.

What was measured:
[1] = test system: platelets in whole blood activated by PAR-1 thrombin receptor activating peptide (TRAP-1); test: VERIFYNOW IIb/IIIa Assay, dose-dependent platelet inhibition with TRAP-1 as platelet activator; assay type: cell-based, human; conditions: TRAP-1 3.7 μM; for % Inhibition, Average: Average of four human donors; for % Inhibition (platelet inhibition relative to baseline): whole blood, 30 min 37°C
Description: The VERIFYNOW™ System instrument is a turbidometric based optical detection system that measures platelet induced aggregation as an increase in light transmittance. The system includes an analyzer, disposable cartridge and controls. The cartridge contains reagents based on microparticle agglutination technology. The quality control system includes an electronic control, two levels of assayed “wet” controls (WQC), an in-cartridge humidity sensor, an in-packaging temperature indicator, and a test for concurrence of two assay channels. […] For use in the present methods the test cartridge of the system contains a lyophilized preparation comprising particles with passively bound GPIIb/IIIa receptor ligand, a thrombin receptor activator, and buffer. The patient sample is usually citrated whole blood, which is automatically dispensed from the blood collection tube into the cartridge by the analyzer, with no blood handling required by the user. The interaction is monitored by the infrared absorbency characteristics of the particles. As the particles interact with the platelets, the agglutination of the particles is measured through the optical system of the VERIFYNOW™ instrument. The agglutination is detected as an increase in the transmission of infrared light through the sample.
An experiment was conducted to determine dose-dependent platelet inhibition by the PAR-1 antagonist E5555 (Eisai Co., Ltd.) using the VERIFYNOW™ IIb/IIIa Assay (Accumetrics, Inc., San Diego, Calif.) and PAR-1 thrombin receptor activating peptide (TRAP-1) as the platelet activator.
Dose response testing was performed with TRAP-1 at 3.7 μM. E5555 was used at final concentrations of 30 ng/ml, 10 ng/ml, 5.0 ng/ml and 1.0 ng/ml. 20 μL of each stock solution was spiked into 2.0 ml of whole blood (1:100 dilution) and mixed carefully to prevent hemolysis. After mixing, the blood samples were incubated for 30 min at 37° C. prior to platelet inhibition test.
Blood samples from four human donors were run in duplicate at baseline and for each of the four E5555 concentrations. As one might have expected, there was donor-to-donor variability in the levels of platelet inhibition measured at a given concentration of E5555. Based on the expected levels of inhibition at each concentration of E5555 provided, the actual results were on average slightly lower than expected across the four donors.

[2] = rat balloon injury model; cited from earlier work
[3] = rabbit subarachnoid hemorrhage model; cited from earlier work
[4] = test system: IL-6, CD40 ligand and P-selectin; conditions: human cells; cited from earlier work
[5] = guinea pig thrombosis model; cited from earlier work
[6] = test system: platelets in whole blood activated by PAR-1 thrombin receptor activating peptide (TRAP-1); conditions: expected level of inhibition provided, cited from earlier work
[7] = target: T1, platelet thrombin receptors (Homo sapiens, UniProt P25116); conditions: receptors activated by either thrombin or TRAP-1; cited from earlier work
T1 construct: host or cells: platelets
T1 sequence (P25116 22-425): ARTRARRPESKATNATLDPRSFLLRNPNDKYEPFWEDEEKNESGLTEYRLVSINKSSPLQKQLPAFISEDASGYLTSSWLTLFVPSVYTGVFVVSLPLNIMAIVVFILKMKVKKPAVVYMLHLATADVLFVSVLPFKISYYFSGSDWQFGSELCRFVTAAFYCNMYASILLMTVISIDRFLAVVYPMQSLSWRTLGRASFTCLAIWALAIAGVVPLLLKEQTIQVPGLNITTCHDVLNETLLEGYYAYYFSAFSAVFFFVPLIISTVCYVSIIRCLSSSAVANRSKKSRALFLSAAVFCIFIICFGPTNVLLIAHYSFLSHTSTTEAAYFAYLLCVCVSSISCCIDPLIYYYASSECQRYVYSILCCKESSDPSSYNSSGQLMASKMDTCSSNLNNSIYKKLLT

[8] = Phase II clinical studies, treated patients; cited from earlier work
PAR-1 thrombin receptor = target: T2, PAR-1 thrombin receptor (Homo sapiens, UniProt P25116); conditions: cited from earlier work
T2 sequence (P25116 22-425): T1 sequence (P25116 22-425)

platelet aggregation = conditions: blood samples from patients undergoing non-urgent PCI; cited from earlier work

CCOc1cc2c(c(F)c1OCC)C(=N)N(CC(=O)c1cc(N3CCOCC3)c(OC)c(C(C)(C)C)c1)C2 [E5555]
% Inhibition, Average ([1]; 1 ng/ml E5555): 5%
% Inhibition, Average ([1]; 5 ng/ml E5555): 30%
% Inhibition, Average ([1]; 10 ng/ml E5555): 57%
% Inhibition, Average ([1]; 30 ng/ml E5555): 86%
% Inhibition (platelet inhibition relative to baseline) ([1]; Donor ID: 60, 1 ng/ml E5555): 7%
% Inhibition (platelet inhibition relative to baseline) ([1]; Donor ID: 60, 5 ng/ml E5555): 17%
% Inhibition (platelet inhibition relative to baseline) ([1]; Donor ID: 60, 10 ng/ml E5555): 46%
% Inhibition (platelet inhibition relative to baseline) ([1]; Donor ID: 60, 30 ng/ml E5555): 82%
% Inhibition (platelet inhibition relative to baseline) ([1]; Donor ID: 75, 1 ng/ml E5555): −1%
% Inhibition (platelet inhibition relative to baseline) ([1]; Donor ID: 75, 5 ng/ml E5555): 15%
% Inhibition (platelet inhibition relative to baseline) ([1]; Donor ID: 75, 10 ng/ml E5555): 39%
% Inhibition (platelet inhibition relative to baseline) ([1]; Donor ID: 75, 30 ng/ml E5555): 78%
% Inhibition (platelet inhibition relative to baseline) ([1]; Donor ID: 126, 1 ng/ml E5555): 5%
% Inhibition (platelet inhibition relative to baseline) ([1]; Donor ID: 126, 5 ng/ml E5555): 51%
% Inhibition (platelet inhibition relative to baseline) ([1]; Donor ID: 126, 10 ng/ml E5555): 77%
% Inhibition (platelet inhibition relative to baseline) ([1]; Donor ID: 126, 30 ng/ml E5555): 97%
% Inhibition (platelet inhibition relative to baseline) ([1]; Donor ID: 137, 1 ng/ml E5555): 7%
% Inhibition (platelet inhibition relative to baseline) ([1]; Donor ID: 137, 5 ng/ml E5555): 35%
% Inhibition (platelet inhibition relative to baseline) ([1]; Donor ID: 137, 10 ng/ml E5555): 66%
% Inhibition (platelet inhibition relative to baseline) ([1]; Donor ID: 137, 30 ng/ml E5555): 88%
effect on neointima hyperplasia [2]: inhibitory effects
effect on thrombin-induced contractile response [3]: inhibitory effects
effect on thrombin-induced release or expression of inflammatory markers (IL-6, CD40 ligand, P-selectin) [4]: inhibitory effects
anti-thrombotic effect [5]: anti-thrombotic effect
% Inhibition, Expected ([6]; 1 ng/ml E5555): 10-50%
% Inhibition, Expected ([6]; 5 ng/ml E5555): 40-80%
% Inhibition, Expected ([6]; 10 ng/ml E5555): 70-100%
% Inhibition, Expected ([6]; 30 ng/ml E5555): 100%

Phe-Leu-Leu-Arg-Asn (FLLRN; printed: Phe-Leu-Leu-Arg-Asn) [truncated TRAP-1 pentapeptide]
antagonism of platelet thrombin receptors [7]: weak antagonist

CCOC(=O)N[C@@H]1CC[C@@H]2[C@@H](C1)C[C@H]1C(=O)O[C@H](C)[C@H]1[C@H]2/C=C/c1ccc(-c2cccc(F)c2)cn1 [SCH 530348]
bleeding time and coagulation times [8]: no increase in bleeding time or prolongation in coagulation times
inhibition of the PAR-1 thrombin receptor (PAR-1 thrombin receptor): potent inhibitor
inhibition of platelet aggregation (platelet aggregation): sustained, dose-dependent, specific agonist-induced inhibition of platelet aggregation
